Measured values published in article PMC3376857 (2012).

Biological target: HDAC1 (Homo sapiens, UniProt Q13547)
Sequence (Q13547 whole entry): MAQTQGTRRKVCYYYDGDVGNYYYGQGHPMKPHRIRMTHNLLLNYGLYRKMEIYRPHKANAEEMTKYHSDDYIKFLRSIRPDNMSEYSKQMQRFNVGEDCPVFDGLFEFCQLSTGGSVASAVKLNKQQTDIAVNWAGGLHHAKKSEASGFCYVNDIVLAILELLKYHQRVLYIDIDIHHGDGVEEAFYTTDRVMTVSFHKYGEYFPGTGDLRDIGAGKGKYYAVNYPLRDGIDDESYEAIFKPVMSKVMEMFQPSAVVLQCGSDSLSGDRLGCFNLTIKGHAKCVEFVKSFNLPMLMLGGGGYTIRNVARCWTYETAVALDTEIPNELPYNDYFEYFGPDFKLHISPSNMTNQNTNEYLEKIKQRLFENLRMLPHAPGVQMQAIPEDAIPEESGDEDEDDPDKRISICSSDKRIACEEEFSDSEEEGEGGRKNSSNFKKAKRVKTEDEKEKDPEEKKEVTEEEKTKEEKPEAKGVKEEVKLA

CC(/C=C/C(=O)NO)=C\[C@@H](C)C(=O)c1ccc(N(C)C)cc1 [TSA, trichostatin A]
deacetylase assay with immunopurified Flag-HDAC1 and acetylated p53 protein: 1 µM
